Experimental data taken from patent US10351573B2, “Benzoic acid, benzoic acid derivatives and heteroaryl carboxylic acid conjugates of hydrocodone, prodrugs, methods of making and uses thereof” (KemPharm, Inc., priority 2009, dated 2019).
Where a name gives a salt, the structure may show the parent alone. Read-outs that look alike come from different tables or passages of the source.

Legend:
[1] = Water solubility / feasibility of intranasal or intravenous dosing; settings: water
[2] = Example 23: Bz-HC.HCl API single dose intranasal human PK study vs HB API; format: in vivo, humans; settings: 13.34 mg Bz-HC•HCl API; for AUC(0-t) / AUC(0-inf) / half-life / Cmax: 13.34 mg
From the text: This was a randomized, double blind, single dose, two way crossover, single center study in recreational non-dependent opioid users. Subjects participated in a Screening Phase (Visit 1), Naloxone Challenge Test (Visit 2, Check in), Treatment Phase (Visit 2, inpatient) and Follow up Phase (Visit 3).
A sufficient number of male and female subjects between the ages of 18-55 years were to be screened in order to enroll approximately 30 subjects into the Treatment Phase to ensure 24 completers.

[3] = Example 22: intranasal crushed / oral intact tablets human PK study vs HB/APAP
[4] = humans, fasted, oral, equimolar doses

With COc1ccc2c3c1O[C@H]1C(OC(=O)c4ccccc4)=CC[C@H]4[C@@H](C2)N(C)CC[C@]314 [Bz-HC•HCl, benzoate-hydrocodone hydrochloride] the “water solubility (in words)” value [1] was “much less soluble in water than the hydrocodone bitartrate”, the “Bz-HC plasma concentrations at 24 hours post-dose (in words)” value ([2]; all subjects) was “below the limit of quantification” and the Tmax ([2]; both sexes, human, plasma, inhaled or intranasal, read-out: Tmax of Bz-HC, Median (Min-Max)) was 15 min. For the same compound, the AUC(0-t) ([2]; both sexes, human, plasma, inhaled or intranasal, n = 22, read-out: AUC0-4 h of Bz-HC, Mean (SD)) was 3.14 ng·h/mL, the AUC(0-t) ([2]; both sexes, human, plasma, inhaled or intranasal, n = 22, read-out: AUC0-4 h of Bz-HC, Median (Min-Max)) was 2.36 ng·h/mL and the AUC(0-t) ([2]; both sexes, human, plasma, inhaled or intranasal, n = 22, read-out: AUC0-6 h of Bz-HC, Mean (SD)) was 3.4 ng·h/mL. For the same compound, the AUC(0-t) ([2]; both sexes, human, plasma, inhaled or intranasal, n = 22, read-out: AUC0-6 h of Bz-HC, Median (Min-Max)) was 2.56 ng·h/mL, the AUC(0-t) ([2]; both sexes, human, plasma, inhaled or intranasal, n = 22, read-out: AUC0-8 h of Bz-HC, Mean (SD)) was 3.51 ng·h/mL and the AUC(0-t) ([2]; both sexes, human, plasma, inhaled or intranasal, n = 22, read-out: AUC0-8 h of Bz-HC, Median (Min-Max)) was 2.62 ng·h/mL. For the same compound, the AUC(0-t) ([2]; both sexes, human, plasma, inhaled or intranasal, n = 22, read-out: AUC0-10 h of Bz-HC, Mean (SD)) was 3.56 ng·h/mL, the AUC(0-t) ([2]; both sexes, human, plasma, inhaled or intranasal, n = 22, read-out: AUC0-10 h of Bz-HC, Median (Min-Max)) was 2.64 ng·h/mL and the AUC(0-t) ([2]; both sexes, human, plasma, inhaled or intranasal, n = 22, read-out: AUC0-12 h of Bz-HC, Mean (SD)) was 3.59 ng·h/mL. The AUC(0-t) ([2]; both sexes, human, plasma, inhaled or intranasal, n = 22, read-out: AUC0-12 h of Bz-HC, Median (Min-Max)) was 2.64 ng·h/mL, the AUC(0-t) ([2]; both sexes, human, plasma, inhaled or intranasal, n = 22, read-out: AUC0-24 h of Bz-HC, Mean (SD)) was 3.61 ng·h/mL and the AUC(0-t) ([2]; both sexes, human, plasma, inhaled or intranasal, n = 22, read-out: AUC0-24 h of Bz-HC, Median (Min-Max)) was 2.65 ng·h/mL. The AUC(0-inf) ([2]; both sexes, human, plasma, inhaled or intranasal, n = 22, read-out: AUCinf of Bz-HC, Mean (SD)) was 3.62 ng·h/mL, the AUC(0-inf) ([2]; both sexes, human, plasma, inhaled or intranasal, n = 22, read-out: AUCinf of Bz-HC, Median (Min-Max)) was 2.65 ng·h/mL and the half-life ([2]; both sexes, human, plasma, inhaled or intranasal, n = 22, read-out: t1/2 of Bz-HC, Mean (SD) (converted)) was 85.2 min. The half-life ([2]; both sexes, human, plasma, inhaled or intranasal, n = 22, read-out: t1/2 of Bz-HC, Median (Min-Max) (converted)) was 78 min, the AUC(0-t) ([2]; both sexes, human, plasma, inhaled or intranasal, n = 23, read-out: AUC0-1.5 h of Bz-HC, Mean (SD)) was 2.06 ng·h/mL and the AUC(0-t) ([2]; both sexes, human, plasma, inhaled or intranasal, n = 23, read-out: AUC0-1.5 h of Bz-HC, Median (Min-Max)) was 1.68 ng·h/mL. The AUC(0-t) ([2]; both sexes, human, plasma, inhaled or intranasal, n = 23, read-out: AUC0-2 h of Bz-HC, Mean (SD)) was 2.39 ng·h/mL, the AUC(0-t) ([2]; both sexes, human, plasma, inhaled or intranasal, n = 23, read-out: AUC0-2 h of Bz-HC, Median (Min-Max)) was 1.93 ng·h/mL and the AUC(0-t) ([2]; both sexes, human, plasma, inhaled or intranasal, n = 23, read-out: AUC0-3 h of Bz-HC, Mean (SD)) was 2.79 ng·h/mL. For the same compound, the AUC(0-t) ([2]; both sexes, human, plasma, inhaled or intranasal, n = 23, read-out: AUC0-3 h of Bz-HC, Median (Min-Max)) was 2.19 ng·h/mL, the AUC(0-t) ([2]; both sexes, human, plasma, inhaled or intranasal, read-out: AUC0-0.0833 h of Bz-HC, Mean (SD)) was 0.0153 ng·h/mL and the AUC(0-t) ([2]; both sexes, human, plasma, inhaled or intranasal, read-out: AUC0-0.5 h of Bz-HC, Mean (SD)) was 0.7 ng·h/mL. The AUC(0-t) ([2]; both sexes, human, plasma, inhaled or intranasal, read-out: AUC0-0.5 h of Bz-HC, Median (Min-Max)) was 0.666 ng·h/mL, the AUC(0-t) ([2]; both sexes, human, plasma, inhaled or intranasal, read-out: AUC0-0.75 h of Bz-HC, Mean (SD)) was 1.15 ng·h/mL and the AUC(0-t) ([2]; both sexes, human, plasma, inhaled or intranasal, read-out: AUC0-0.75 h of Bz-HC, Median (Min-Max)) was 0.977 ng·h/mL. For the same compound, the AUC(0-t) ([2]; both sexes, human, plasma, inhaled or intranasal, read-out: AUC0-1 h of Bz-HC, Mean (SD)) was 1.5 ng·h/mL, the AUC(0-t) ([2]; both sexes, human, plasma, inhaled or intranasal, read-out: AUC0-1 h of Bz-HC, Median (Min-Max)) was 1.24 ng·h/mL and the AUC(0-t) ([2]; both sexes, human, plasma, inhaled or intranasal, read-out: AUClast of Bz-HC, Mean (SD)) was 3.24 ng·h/mL. It also gave an AUC(0-t) ([2]; both sexes, human, plasma, inhaled or intranasal, read-out: AUClast of Bz-HC, Median (Min-Max)) of 2.41 ng·h/mL, a Cmax ([2]; both sexes, human, plasma, inhaled or intranasal, read-out: Cmax of Bz-HC, Mean (SD)) of 2.41 ng/mL and a Cmax ([2]; both sexes, human, plasma, inhaled or intranasal, read-out: Cmax of Bz-HC, Median (Min-Max)) of 2.16 ng/mL. It also gave a concentration at […] ([2]; both sexes, human, plasma, other: intranasal, at 0.25 hour post-dose, read-out: highest mean (SD) plasma concentration of Bz-HC) of 2.01 ng/mL, an AUC(0-t) ([2]; both, human, plasma, inhaled or intranasal, AUC0-[…] of Bz-HC, Mean (SD), read-out: AUC0-0.25 h of Bz-HC, Mean (SD)) of 0.213 ng·h/mL and an AUC(0-t) ([2]; both, human, plasma, inhaled or intranasal, AUC0-[…] of Bz-HC, Median (Min-Max), read-out: AUC0-0.25 h of Bz-HC, Median (Min-Max)) of 0.197 ng·h/mL. For the same compound, the half-life ([3]; human, plasma, inhaled or intranasal) was 66.6 min, the “Tlast of Bz-HC (time of the last quantifiable concentration), median” value ([3]; intranasal crushed Bz-HC.HCl/APAP 13.34/650 mg) was 6.22 h and the “bioequivalence to Norco (in words)” value [4] was “bioequivalent”.
